According to patent publication EP0774249A2, “Topical composition containing specific flavanones” (UNILEVER PLC, priority 1995, dated 1997):
Entries after “also recorded” stand apart in the source; their conditions may differ. Where two headings read alike, the source gives them in different places. Values belong to the compound of their own block, whether it stands above or below them.

Test system: Human Epidermal Keratinocytes
Test: Transglutaminase (TG-1) assay, ELISA on cultured keratinocytes
Assay type: cell-based
Details: for Effects on Differentiation (TG-1): after 72 hour incubation; for morphology of the cells / cytotoxic effect on keratinocytes: observation of the cultures; for TG-1 Expressed Day 1 / TG-1 Expressed Day 2: concentrations not given; for TG-1 production DAY 2 / TG-1 production DAY 3 / TG-1 production DAY 1: absorbance OD 490nm; for TG-1 production DAY 2: control 0.134 (Exp. 1), 0.152 (Exp. 2), 0.174 (Exp. 3); for TG-1 production DAY 3: control 0.143 (Exp. 1), 0.200 (Exp. 2), 0.218 (Exp. 3); for TG-1 production DAY 1: control 0.154 (Exp. 1), 0.179 (Exp. 2), 0.181 (Exp. 3); for stimulation of differentiation (TG-1 production) against the control: 10, 25, 50 µg/mL, days 1 to 3 (Table 2); for activity at 10 µg/mL / activity at 25 µg/mL / activity at 50 µg/mL: Homo sapiens, Keratinocyte; for TG-1 expressed on Day 1: single flavanone
[1] = Experiment 1, control 0.17 ± 0.01
[2] = Experiment 1, control 0.21 ± 0.02
[3] = Experiment 2, control 0.16 ± 0.01
[4] = Experiment 2, control 0.20 ± 0.01
[5] = 24 h, 10 µg/mL, read-out: DAY 1 (% over control) (converted)
[6] = 24 h, 25 µg/mL, read-out: DAY 1 (% over control) (converted)
[7] = 24 h, 50 µg/mL, read-out: DAY 1 (% over control) (converted)
[8] = 48 h, 10 µg/mL, read-out: DAY 2 (% over control) (converted)
[9] = 48 h, 25 µg/mL, read-out: DAY 2 (% over control) (converted)
[10] = 48 h, 50 µg/mL, read-out: DAY 2 (% over control) (converted)
[11] = 72 h, 10 µg/mL, read-out: DAY 3 (% over control) (converted)
[12] = 72 h, 25 µg/mL, read-out: DAY 3 (% over control) (converted)
[13] = 72 h, 50 µg/mL, read-out: DAY 3 (% over control) (converted)
[14] = 5μg/mL, control 0.17 (Exp. 1), 0.19 (Exp. 3)
[15] = 10μg/mL, control 0.17 (Exp. 1), 0.19 (Exp. 3)

Structure (SMILES): O=c1cc(-c2ccc(O)cc2)oc2cc(O)cc(O)c12 [Apigenin, reference compound]
- Effects on Differentiation (TG-1) (5 and 15 µg/ml): No effect
- morphology of the cells / cytotoxic effect on keratinocytes (5 and 15 µg/ml): disrupted the cell membranes

Structure (SMILES): CCCCCCCCCCCCC/C=C/C(O)C(CO)NC(C)=O (stereo not shown) [C2-Ceramide (Formula A)]
- TG-1 Expressed Day 1 [1]: 0.15 ± 0.01^1
- TG-1 Expressed Day 2 [2]: 0.23 ± 0.02^3

Structure (SMILES): CCCCCCCCCCCCCCCCN(CC(O)CO)C(C)=O (stereo not shown) [C2-Neoceramide (Formula F)]
- TG-1 Expressed Day 1 [3]: 0.16 ± 0.01
- TG-1 Expressed Day 2 [4]: 0.21 ± 0.02

Structure (SMILES): O=c1cc(-c2ccccc2)oc2cc(O)cc(O)c12 [Chrysin, reference compound]
- Effects on Differentiation (TG-1) (5 and 15 µg/ml): No effect

Structure (SMILES): O=c1ccc2ccccc2o1 [Coumarin, reference compound]
- Effects on Differentiation (TG-1) (5 and 15 µg/ml): No effect

Structure (SMILES): O=c1c(-c2ccc(O)cc2)coc2cc(O)ccc12 [Daidzein, reference compound]
- stimulation or inhibition of differentiation processes, time course study (5 and 15 µg/ml): no effects
- Effects on Differentiation (TG-1) (5 and 15 µg/ml): No effect
- morphology of the cells / cytotoxic effect on keratinocytes (5 and 15 µg/ml): no morphological changes

Structure (SMILES): Oc1cc(O)c2c(c1)O[C@H](c1ccc(O)c(O)c1)[C@H](O)C2 [Epicatechin, reference compound]
- Effects on Differentiation (TG-1) (5 and 15 µg/ml): No effect

- Effects on Differentiation (TG-1) (5 and 15 µg/ml): Increase TG-1
- Effects on Differentiation (TG-1) (5 and 15 µg/ml, listed as eriodictyol): stimulated TG-1 production
Structure (SMILES): O=C1CC(c2ccc(O)c(O)c2)Oc2cc(O)cc(O)c21 (stereo not shown) [Eriodictyol]
- TG-1 production DAY 2 (10 µg/mL): 0.194 ± 0.01
- TG-1 production DAY 3 (10 µg/mL): 0.264 ± 0.03
- TG-1 production DAY 1 (10 µg/mL): 0.178 ± 0.02
- TG-1 production DAY 2 (25 µg/mL): 0.222 ± 0.05
- TG-1 production DAY 3 (25 µg/mL): 0.314 ± 0.07
- TG-1 production DAY 1 (25 µg/mL): 0.211 ± 0.04
- TG-1 production DAY 2 (50 µg/mL): 0.174 ± 0.02
- TG-1 production DAY 3 (50 µg/mL): 0.193 ± 0.05
- TG-1 production DAY 1 (50 µg/mL): 0.186 ± 0.02
- stimulation of differentiation (TG-1 production) against the control: stimulated differentiation to the same extent or higher than the control
- activity at 10 µg/mL [5]: 99%
- activity at 25 µg/mL [6]: 118%
- activity at 50 µg/mL [7]: 104%
- activity at 10 µg/mL [8]: 128%
- activity at 25 µg/mL [9]: 146%
- activity at 50 µg/mL [10]: 115%
- activity at 10 µg/mL [11]: 132%
- activity at 25 µg/mL [12]: 157%
- activity at 50 µg/mL [13]: 97%

Structure (SMILES): O=c1c(O)c(-c2ccc(O)c(O)c2)oc2cc(O)ccc12 [Fisetin, reference compound]
- Effects on Differentiation (TG-1) (5 and 15 µg/ml): No effect

Structure (SMILES): COc1ccc(-c2coc3cc(O)ccc3c2=O)cc1 [Formonoetin, reference compound]
- Effects on Differentiation (TG-1) (5 and 15 µg/ml): No effect

- Effects on Differentiation (TG-1) (5 and 15 µg/ml): Increase TG-1
Structure (SMILES): COc1ccc(C2CC(=O)c3c(O)cc(O)cc3O2)cc1O (stereo not shown) [Hesperetin]
- TG-1 expressed on Day 1 [14]: 0.19 ± 0.01 ^1
- TG-1 expressed on Day 1 [15]: 0.19 ± 0.02 ^1
- TG-1 production DAY 2 (10 µg/mL): 0.155 ± 0.01
- TG-1 production DAY 3 (10 µg/mL): 0.190 ± 0.01
- TG-1 production DAY 1 (10 µg/mL): 0.142 ± 0.01
- TG-1 expressed on Day 1 (20μg/mL, control 0.19 (Exp. 2)): 0.20 ± 0.02
- TG-1 production DAY 2 (25 µg/mL): 0.167 ± 0.02
- TG-1 production DAY 3 (25 µg/mL): 0.182 ± 0.01
- TG-1 production DAY 1 (25 µg/mL): 0.148 ± 0.02
- TG-1 expressed on Day 1 (40μg/mL, control 0.19 (Exp. 2)): 0.20 ± 0.01
- TG-1 production DAY 2 (50 µg/mL): 0.213 ± 0.04
- TG-1 production DAY 3 (50 µg/mL): 0.196 ± 0.01
- TG-1 production DAY 1 (50 µg/mL): 0.154 ± 0.04
- Effects on Differentiation (TG-1) (5 and 15 µg/ml, listed as hesperetin): effective keratinocyte pro-differentiating agents; also recorded: stimulated TG-1 production
- stimulation of differentiation (TG-1 production) against the control: stimulated differentiation to the same extent or higher than the control
- TG-1 Expressed Day 1 [1]: 0.14 ± 0.01^1
- TG-1 Expressed Day 2 [2]: 0.22 ± 0.02
- TG-1 Expressed Day 1 [3]: 0.15 ± 0.01^2
- TG-1 Expressed Day 2 [4]: 0.21 ± 0.02
- activity at 10 µg/mL [5]: 92%
- activity at 25 µg/mL [6]: 96%
- activity at 50 µg/mL [7]: 100%
- activity at 10 µg/mL [8]: 116%
- activity at 25 µg/mL [9]: 125%
- activity at 50 µg/mL [10]: 159%
- activity at 10 µg/mL [11]: 133%
- activity at 25 µg/mL [12]: 127%
- activity at 50 µg/mL [13]: 137%

Structure (SMILES): COc1ccc([C@@H]2CC(=O)c3c(O)cc(O[C@@H]4O[C@H](CO[C@@H]5O[C@@H](C)[C@H](O)[C@@H](O)[C@H]5O)[C@@H](O)[C@H](O)[C@H]4O)cc3O2)cc1O [Hesperidin, reference compound]
- Effects on Differentiation (TG-1) (5 and 15 µg/ml): No effect

- Effects on Differentiation (TG-1) (5 and 15 µg/ml): Increase TG-1
Structure (SMILES): O=C1C[C@@H](c2ccc(O)cc2)Oc2cc(O)cc(O)c21 [Naringenin]
- TG-1 expressed on Day 1 [14]: 0.19 ± 0.02
- TG-1 expressed on Day 1 [15]: 0.21 ± 0.01 ^5
- TG-1 production DAY 2 (10 µg/mL): 0.149 ± 0.01
- TG-1 production DAY 3 (10 µg/mL): 0.159 ± 0.01
- TG-1 production DAY 1 (10 µg/mL): 0.147 ± 0.01
- TG-1 production DAY 2 (25 µg/mL): 0.200 ± 0.03
- TG-1 production DAY 3 (25 µg/mL): 0.171 ± 0.02
- TG-1 production DAY 1 (25 µg/mL): 0.207 ± 0.02
- TG-1 production DAY 2 (50 µg/mL): 0.186 ± 0.01
- TG-1 production DAY 3 (50 µg/mL): 0.169 ± 0.01
- TG-1 production DAY 1 (50 µg/mL): 0.156 ± 0.01
- Effects on Differentiation (TG-1) (5 and 15 µg/ml, listed as naringenin): effective keratinocyte pro-differentiating agents; also recorded: stimulated TG-1 production
- stimulation of differentiation (TG-1 production) against the control: stimulated differentiation to the same extent or higher than the control
- activity at 10 µg/mL [5]: 99%
- activity at 25 µg/mL [6]: 134%
- activity at 50 µg/mL [7]: 101%
- activity at 10 µg/mL [8]: 111%
- activity at 25 µg/mL [9]: 149%
- activity at 50 µg/mL [10]: 139%
- activity at 10 µg/mL [11]: 111%
- activity at 25 µg/mL [12]: 120%
- activity at 50 µg/mL [13]: 118%

Structure (SMILES): CC1OC(OC2C(Oc3cc(O)c4c(c3)OC(c3ccc(O)cc3)CC4=O)OC(CO)C(O)C2O)C(O)C(O)C1O (stereo not shown) [Naringin, reference compound]
- Effects on Differentiation (TG-1) (5 and 15 µg/ml): No effect
- Effects on Differentiation (TG-1) (5 and 15 µg/ml, listed as naringin): not an effective material for promoting the differentiation of keratinocytes

Structure (SMILES): O=c1c(O)c(-c2ccc(O)c(O)c2)oc2cc(O)cc(O)c12 [Quercetin, reference compound]
- Effects on Differentiation (TG-1) (5 and 15 µg/ml): No effect

- Effects on Differentiation (TG-1) (5 and 15 µg/ml): Increase TG-1
- Effects on Differentiation (TG-1) (5 and 15 µg/ml, listed as taxifolin): stimulated TG-1 production
Structure (SMILES): O=C1c2c(O)cc(O)cc2O[C@H](c2ccc(O)c(O)c2)[C@H]1O [Taxifolin]
- TG-1 production DAY 2 (10 µg/mL): 0.204 ± 0.04
- TG-1 production DAY 3 (10 µg/mL): 0.231 ± 0.03
- TG-1 production DAY 1 (10 µg/mL): 0.153 ± 0.02
- TG-1 production DAY 2 (25 µg/mL): 0.212 ± 0.03
- TG-1 production DAY 3 (25 µg/mL): 0.226 ± 0.02
- TG-1 production DAY 1 (25 µg/mL): 0.175 ± 0.04
- TG-1 production DAY 2 (50 µg/mL): 0.159 ± 0.01
- TG-1 production DAY 3 (50 µg/mL): 0.199 ± 0.04
- TG-1 production DAY 1 (50 µg/mL): 0.150 ± 0.02
- stimulation of differentiation (TG-1 production) against the control: stimulated differentiation to the same extent or higher than the control
- activity at 10 µg/mL [5]: 85%
- activity at 25 µg/mL [6]: 97%
- activity at 50 µg/mL [7]: 84%
- activity at 10 µg/mL [8]: 117%
- activity at 25 µg/mL [9]: 122%
- activity at 50 µg/mL [10]: 92%
- activity at 10 µg/mL [11]: 106%
- activity at 25 µg/mL [12]: 104%
- activity at 50 µg/mL [13]: 92%
